{
  "source": "patent US8257734B2",
  "about": "“PQS and its conjugates as adjuvants and their uses in pharmaceutical compositions” (Helmhotlz-Zentrum Fuer Infektions-Forschung GmbH, priority 2005, dated 2012)",
  "key": {"[1]": {"system": "spleen cells", "assay": "[3H]thymidine proliferation of spleen cells from vaccinated mice restimulated in vitro with β-gal", "assay_type": "in vivo, BALB/c (H-2d) mice", "conditions": "day 38, vs β-gal alone", "procedure": "Experimental protocol: Spleens were removed and pooled for analysis of cellular immune responses. […] Spleen cell suspensions were adjusted to 5×10^6 cells/ml in complete medium, cells were seeded with 100 μl per well in a flat-bottomed 96-well microtiter plate (Nunc) and plates were incubated for 4 days in the presence of different concentrations of soluble β-gal. That is, T cell mediated immune responses were investigated at day 38 by measuring the proliferation after in vitro restimulation with β-Gal of cells which have been recovered from spleens before. […] Each concentration was tested in quadruplicate. During the final 18 h of culture, 1 μCi of [3H]thymidine (Amersham International, Freiburg, Germany) was added to each well. […] The results are expressed as the arithmetic mean of [^3H]thymidine uptake in cpm.\nThirty eight days following vaccination, spleens cells were purified, re-stimulated in vitro in the presence of various amounts of β-galactosidase and their proliferative capacity was estimated by measuring the incorporation of [3H]thymidine into their DNA using a β-scintillation counter."}, "[2]": {"system": "TNF-alpha", "conditions": "cited from earlier work"}, "[3]": {"system": "human peripheral blood mononuclear cells", "conditions": "stimulated with the lectin ConA; cited from earlier work"}, "[4]": {"system": "spleenocytes stimulated with ConA", "conditions": "cited from earlier work"}, "[5]": {"system": "IFN-γ, IL-2, IL-4, IL-5, and TNFα", "assay": "Cytometric Bead Array of cytokines in supernatants of in vitro re-stimulated spleen cells", "assay_type": "in vivo, mice", "conditions": "vs β-Gal without additional adjuvant", "procedure": "Experimental protocol: Spleens from vaccinated mice were removed and pooled for analysis of cellular immune responses. The protocol for vaccination was identical to the protocol described in Example 2. Cells were grown in RPMI 1640 supplemented with 10% fetal calf serum, 100 U/ml of penicillin, 50 μg/ml of streptomycin, 5×10^−5 M 2-mercaptoethanol and 1 mM L-glutamine (GIBCO BRL, Karlsruhe, Germany) and maintained at 37° C. in a humidified 5% CO2 atmosphere. Spleen cell suspensions were adjusted to 5×10^6 cells/ml in complete medium, cells were seeded with 100 μl per well in a flat-bottomed 96-well microtiter plate (Nunc) and plates were incubated for 4 days in the presence of different concentrations of soluble β-gal.\nTo characterize the type of Th response stimulated following immunization, the content of IFN-γ, IL-2, IL-4, IL-5, and TNFα was measured in supernatants from in vitro re-stimulated spleen cells (FIG. 6A for s.c. immunization and FIG. 6B for i.n. immunization) by the Cytometric Bead Array. Culture supernatants from proliferating cells were collected on days 2 and 4, and stored at −70° C. […] The probes were analyzed subsequently by flow cytometry as described in the protocol of BD."}, "[6]": {"system": "splenic IFNγ, IL-2 and IL-4 producing cells", "assay": "ELISPOT of cytokine producing spleen cells from vaccinated mice", "assay_type": "in vivo", "conditions": "for splenic IL-2 producing cells / splenic IL-4 producing cells: restimulation with β-Gal protein", "procedure": "Experimental protocol: Spleens from vaccinated mice were removed and pooled for analysis of cellular immune responses. […] Spleen cell suspensions were adjusted to 5×10^6 cells/ml in complete medium, cells were seeded with 100 μl per well in a flat-bottomed 96-well microtiter plate (Nunc) and plates were incubated for 4 days in the presence of different concentrations of soluble β-gal.\nFor coating ELISPOT plates, said plates were incubated with 100 μl/well of purified capture antibody (10 μg/ml in coating buffer) at 4° C. overnight. […] The activated cells were seeded at 100 μl per well and incubate at 37° C., in a 5% CO2 humidified incubator for 24 hours or 48 h hours. After 5× washing steps with washing buffer and 1× step with distilled water, 100 μl/well of the biotinylated detection antibody with a concentration of 1 μg/ml in Assay Diluent was added and incubated at room temperature for 2 hrs. After further washing steps 100 μl/well of the AV-HRP at 1/1000 dilution in Assay Diluent was added and incubated at room temperature for 30 minutes. After further washing steps 100 μl/well of AEC Substrate Solution was added and developed at room temperature for 10-60 minutes until visible spots appeared. After washing steps with (3×) with 200 μl/well distilled water, the plates were air-dried and analyzed by counting the spots by an ELISPOT reader. Each concentration was tested in triplicates."}, "[7]": {"system": "P815 target cells", "assay": "Cr51 release cytotoxicity assay with effector cells of immunized mice", "assay_type": "in vivo", "conditions": "mice immunized with β-gal/PQS subcutaneously; FIG. 8A; vs non-immunized mice", "procedure": "This system is based on the measurement of the Cr51 release of target cells due to specific lysis. In particular, with the amount of radioactivity detectable in the supernatant, the specific lysis can be calculated.\nPrior the Cytotoxicity Assay, P815 target cells were split and resuspended and adjusted to 2×10E6 cells/300 μl DMEM. The P815 cells were incubated with an MHC class I β-gal specific peptide for 1.5 h, while slightly agitating the cells every 15 min to improve binding between the peptide and the MHC class I molecule. After washing the cells, cells were resuspended in 150 μl medium without FCS and cultured for 2 h in the presence of 100 μci 51Chrom. Every 30 min, the cell suspension was agitated slightly. Subsequently, cells were washed twice in DMEM plus 10% FCS to remove unbound 51Cr. The cells were adjusted to […]. The effector cells were diluted serially (1×10E6, 0.5×10E6, 0.25×10E6, and 0.125×10E6). 50 μl of the murine target cells (10000 cells) were added to the effector cells, thus, the ratio of effector cells/target cells is 100:1, 50:1, 25:1, and 12.5:1, respectively. […] 25 or 30 μl, supernatant was taken from each of the wells and radioactivity according to standard practice determined. The specific lysis was calculated taking spontaneous lysis and maximal lysis into account."}, "[8]": {"system": "β-gal-specific IgG", "assay": "β-gal-specific serum IgG ELISA after immunization with β-gal plus adjuvant", "assay_type": "in vivo, BALB/c (H-2d) mice", "conditions": "30 μg β-gal + 10 μg adjuvant, vs β-gal alone", "procedure": "Experimental protocol: six-eight weeks-old female BALB/c (H-2d) mice were purchased from Harlan Winkelmann GmbH (Borchen, Germany) and treated in accordance with local and European Community guidelines. Groups of 5 mice each were immunized on day 1, 14 and 28 with 30 μg of β-gal (Boehringer, Mannheim, Germany), alone or as an admixture with 10 μg PQS-PEG or with 10 μg PQS (structure of said compounds are shown in FIG. 1). For intranasal (i.n.) immunization, 10 μl were applied to each naris, whereas for the s.c. injection β-gal with or without c-PQS-PEG or PQS, respectively, was resuspended in a volume of 20 μl PBS per animal. Serum samples were collected at day 38 after immunization and stored at −20° C. prior to determination of β-gal-specific antibodies. 96-well Nunc-Immuno MaxiSorp assay plates (Nunc, Roskilde, Denmark) were coated with 100 μl of β-gal (Boehringer, Mannheim, Germany) at 5 μg/ml in 0.05 M carbonate buffer (pH 8.2) per well. Serial two-fold dilutions of sera in PBS with 1% BSA and 0.05% Tween 20 were added (100 μl/well), and plates incubated for 16 h at 37° C. After washing, biotinylated γ-chain-specific goat anti-mouse IgG (Sigma Chemie, Deisenhofen, Germany) was added, and plates were incubated for an additional 1 h at 37° C. After four washes, 100 μl of peroxidase-conjugated streptavidin (Pharmingen) was added to cells and plates incubated at 37° C. for 30 min."}, "[9]": {"system": "β-gal antigen-specific IgG1", "assay": "Isotyp ELISA of β-gal-specific IgG subclasses in sera of vaccinated mice", "assay_type": "in vivo", "procedure": "Isotyp ELISA: 96-well Nunc-Immuno MaxiSorp assay plates (Nunc, Roskilde, Denmark) were coated with 100 μl of β-gal (Boehringer, Mannheim, Germany) at 5 μg/ml in 0.05 M carbonate buffer (pH 9.6) per well. Serial two-fold dilutions of sera or lavages in PBS with 1% BSA and 0.05% Tween 20 were added (100 μl/well), and plates incubated for 2 h at 37° C. After washing, biotin-conjugated rat anti-mouse IgG1 or IgG2a (Pharmingen, Hamburg, Germany) were added to determine IgG subclasses. Plates were incubated for an additional 1 h at 37° C. After four washes, 100 μl of peroxidase-conjugated streptavidin (Pharmingen) was added to cells and plates incubated at 37° C. for 30 min. […] To determine the concentration of IgG subclasses in serum, standard curves were obtained by coating the wells with an isotype-specific goat anti-mouse IgG, and then by incubating with purified mouse IgG1 or IgG2 antibodies (Dianova, Hamburg, Germany)."}, "[10]": {"system": "IL-2", "conditions": "cited from earlier work"}, "[11]": {"system": "β-gal-specific IgA", "assay": "β-gal-specific IgA in lung and vaginal lavages after i.n. immunization", "assay_type": "in vivo, BALB/c (H-2d) mice", "conditions": "day 38, vs β-gal alone", "procedure": "Experimental protocol: at day 38, mice were sacrificed and the final sampling was performed. Vaginal and lung lavages were obtained by flushing the organs with 1 ml of PBS supplemented with 50 mM EDTA, 0.1% BSA, and 10 mM PMSF. Lavages were then centrifuged to remove debris (10 min at 3000×g), and supernatant fluids were stored at −20° C. To determine the concentration of total IgA present in the lung and vaginal lavages, serial dilutions of the corresponding samples were incubated in microtiter plates that were previously coated with goat anti-mouse IgA (Sigma Chemie), as capture antibodies (100 μl/well). Serial dilutions of purified mouse IgA (Sigma Chemie) were used to generate a standard curve."}},
  "note": "Entries after “also recorded” stand apart in the source; their conditions may differ.",
  "data": [
    {"molecule": "CCCCCCCC1=Nc2ccccc2C(=O)C1O", "note": "(centres unmarked) [PQS, 2-heptyl-3-hydroxy-4-quinolone]", "values": [
      {"measurement": "spleen cell proliferation ([3H]thymidine uptake) after β-gal restimulation", "setting": "[1]; i.n. immunization", "value": "efficient adjuvant; also recorded: efficient proliferative response at low amounts of antigen; also recorded: statistically significant increment"},
      {"measurement": "spleen cell proliferation ([3H]thymidine uptake) after β-gal restimulation", "setting": "[1]; s.c. immunization", "value": "efficient adjuvant; also recorded: further increase in proliferation; also recorded: statistically significant increment"},
      {"measurement": "TNF-alpha production", "setting": "[2]; at high concentrations", "value": "enhances"},
      {"measurement": "TNF-alpha release from PMCs", "setting": "[2]; at low doses, stimulated with LPS", "value": "no effect"},
      {"measurement": "proliferation of human peripheral blood mononuclear cells", "setting": "[3]", "value": "proliferation inhibiting activity"},
      {"measurement": "proliferation of spleenocytes", "setting": "[4]", "value": "inhibiting activity"},
      {"measurement": "levels of IL-5", "setting": "[5]; i.n. route", "value": "significantly higher"},
      {"measurement": "levels of IL-5", "setting": "[5]; s.c. route", "value": "significantly higher"},
      {"measurement": "splenic IL-2 producing cells", "setting": "[6]; i.n. route", "value": "strong expression"},
      {"measurement": "splenic IL-4 producing cells", "setting": "[6]; i.n. route", "value": "strong expression"},
      {"measurement": "amounts of IFNγ expressing cells", "setting": "[6]; i.n. vaccination, compared with s.c. vaccination", "value": "lower to the level determined after s.c. vaccination"},
      {"measurement": "expression of Th1 and Th2 cytokines after restimulation of spleen cells", "setting": "[6]; intranasal immunization (FIG. 7B)", "value": "increased expression"},
      {"measurement": "number of splenic IFNγ producing cells", "setting": "[6]; parenteral (s.c.) vaccination, restimulation with MHC class I-restricted β-Gal peptide (CD8 epitope), FIG. 7A", "value": "increment"},
      {"measurement": "splenic IL-2 producing cells", "setting": "[6]; s.c. route", "value": "strong expression"},
      {"measurement": "splenic IL-4 producing cells", "setting": "[6]; s.c. route", "value": "strong expression"},
      {"measurement": "expression of Th1 and Th2 cytokines after restimulation of spleen cells", "setting": "[6]; subcutaneous immunization (FIG. 7A)", "value": "increased expression"},
      {"measurement": "specific lysis of peptide-pulsed target cells by β-gal restimulated CD8+ T-cells", "setting": "[7]", "value": "demonstrates the cytotoxic capacity"},
      {"measurement": "β-gal specific IgG titer in sera", "setting": "[8]; i.n. immunization day 1, 14, 28, sera day 38", "value": "increased expression; also recorded: remarkably increased"},
      {"measurement": "β-gal specific IgG titer in sera", "setting": "[8]; s.c. (parenteral) immunization day 1, 14, 28", "value": "remarkably increased"},
      {"measurement": "antigen-specific antibody response", "setting": "[9]; i.n. immunization", "value": "strong antigen-specific antibody response"},
      {"measurement": "antigen specific antibodies of the IgG1 subtype in sera", "setting": "[9]; intranasal administration, FIG. 5B", "value": "strongly increased"},
      {"measurement": "expression of the IgG1 isotype in sera", "setting": "[9]; subcutaneous administration, FIG. 5A", "value": "strongly increased"},
      {"measurement": "IL-2 release from PMCs", "setting": "[10]; at low doses, stimulated with ConA", "value": "no effect"},
      {"measurement": "IL-2 secretion", "setting": "[10]", "value": "inhibited"},
      {"measurement": "β-gal-specific IgA in lung lavage", "setting": "[11]", "value": "slight increase"},
      {"measurement": "β-gal-specific IgA in vaginal lavage", "setting": "[11]", "value": "slight increase"}
    ]}
  ]
}
